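Grown in 96-well plates, cells were treated for 48 hours with each compound at five concentrations. Insufficient inhibition: endpoint recorded as highest concentration tested. The concentration for full growth arrest is given as TGI.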

Experimental findings from PubChem BioAssay (NCI) are described below.

What all share (assay): growth of human tumour cells (NCI), 48 h
The test system of test [1] is SR leukemia.
Test [2] has as its system A549 NSCLC.
For test [3], the system named is SF-539 CNS.
Test [4] has as its system TK-10 renal.
In test [5] the test system is SK-MEL-5 melanoma.
The subject of test [6] is UACC-257 melanoma.
Test [7] has as its system IGROV1 ovarian.
Test [8] deals with HCT-15 colon.
Test [9] deals with MCF7 breast.
For test [10], the system named is NCI-H226 lung.

As for `CC1OC(OC2C(O[C@H]3CC[C@@]4(C)C(=CC[C@H]5[C@@H]6C[C@@H]7O[C@]8(CC[C@@H](C)CO8)[C@@H](C)[C@@H]7[C@@]6(C)CC[C@@H]54)C3)OC(CO)C(O)C2OC2OC(CO)C(O)C(O)C2O)C(O)C(O)C1O` (some centres not stated), the TGI in test [1] was above 100 µM; in [2], 3.35 µM; in test [3], 5.23 µM; in test [4], 4.01 µM; in test [5], 4.36 µM; in test [6], 3.65 µM. Also, the TGI in test [7] stood at 3.3 µM; in test [8], 4.03 µM; in test [9], 4.55 µM.
Turning to `CC(C)CCCC(C)[C@H]1CCC(C2C[C@@H](O)[C@@H]3CC(O)[C@@H](O)C[C@]3(CO)C2=O)[C@]1(C)CCO` (some centres not stated), the TGI in test [10] was above 73.8 µM; in [2], above 96.2 µM; in test [3], 39.6 µM; in test [5], 18.8 µM; in test [6] it was 46.5 µM; in [7] it was 42.4 µM. Further, the results for the TGI in [8] and in test [9] were above 66.8 µM and 20.4 µM, respectively.
Regarding `CCOP(=O)(/C=C/n1cc(C)c(=O)[nH]c1=O)OCC`, the TGI in test [10], in test [2], in [3], in [4], in test [5] and in test [6] was above 100 µM throughout. The TGI in test [7], in test [8] and in test [9] was above 100 µM each time.
As to `O=C(O)CSC(CC(=O)c1ccc(Cl)cc1)c1ccc(Cl)cc1` (configuration not stated), the TGI is 7.37 µM in [1]; above 100 µM in test [2]; above 100 µM in test [3]; above 100 µM in test [4]; above 100 µM in test [5]; 53.3 µM in test [6]. In addition, the TGI in test [7] was 54.5 µM; in test [8], above 100 µM; in test [9] it was above 100 µM.
With `Nc1[nH]c(=O)nc2c1ncn2C1OC(CO)C(O)C1O` (configuration not stated), the TGI in test [10], in test [2], in [4], in [5], in [6] and in test [7] was above 100 µM in each case. Further, the TGI in test [8] was 95.4 µM; in test [9] it was above 100 µM.
As for `COc1ccccc1NC(=O)C(=O)C(C(=O)c1ccccc1F)C1OC(=O)c2ccccc21` (configuration not stated), the TGI in [1] is 60.7 µM; in test [10], 43.8 µM; in test [2], above 100 µM; in test [3] it was 66.1 µM; in [4], above 100 µM; in test [5], above 100 µM. Further, the TGI in [6] is above 100 µM; in [7], above 100 µM; in test [8], 69.2 µM.
In the case of `C[s+]1c2ccccc2c2ccccc21`, the TGI in [1], in test [10], in test [2], in [3], in test [4] and in test [5] was above 100 µM each time. Also, the TGI in test [7] and in [8] was above 100 µM throughout.
With `COc1cc2c[n+]3c4c(c2c(OC)c1OC)CCCC4CC3` (configuration not stated), the TGI in test [2] is above 100 µM; in test [5] it was 46.9 µM; in [6], above 100 µM; in test [7], above 100 µM; in test [8], above 100 µM.
Take `CCN(CC)C(=S)SC(C(=O)Nc1nnc(-c2ccc(Cl)cc2)o1)c1ccccc1` (configuration not stated): the TGI is 38.3 µM in [1]; 52.1 µM in test [2]; 30.5 µM in [3]; 62.3 µM in test [4]; 19.4 µM in [5]; above 100 µM in test [6]. In addition, the TGI was 8.33 µM in [7], 18.9 µM in test [8] and above 100 µM in test [9].
Regarding `CC(Nc1ccc(Cl)cc1)c1ccncc1` (configuration not stated), the TGI in test [10], in test [2], in test [3], in test [4], in [5] and in test [6] was above 100 µM each time. The TGI in test [7], in test [8] and in test [9] was above 100 µM throughout.
Turning to `O=C(Nc1ccccc1)N1CCN(C(=O)Nc2ccccc2)C1=S`, the TGI in test [1] is above 100 µM; in test [10], 70.5 µM; in [2], above 100 µM; in test [3], 41.5 µM; in [4] it was above 100 µM; in [5], above 100 µM. Moreover, the TGI in [6], in test [7] and in [8] was above 100 µM in each case.
Turning to `CSC(SC)=C(C(=O)c1ccc(Cl)cc1)n1c(=O)sc2cc(Br)ccc21`, the TGI in [10], in test [2], in test [3], in test [4], in test [5] and in test [6] was above 100 µM each time. Moreover, the TGI in test [7], in test [8] and in test [9] was above 100 µM each time.
`Cc1nc(NC(C)(CO)CO)nc(N/N=C/c2ccc(Cl)cc2)c1C(=O)Nc1ccc(Cl)cc1`: the TGI in test [10], in test [2], in [3], in test [4], in [6] and in test [7] was above 100 µM in each case. Besides, the TGI in [8] and in test [9] was above 100 µM each time.
For `CCOc1ccc2nc(NC(=O)C(=O)C(C(=O)c3ccccc3F)C3OC(=O)c4ccccc43)sc2c1` (configuration not stated), the TGI in [1] stood at 55.6 µM; in [10], 27.5 µM; in test [2], 76.4 µM; in test [3], 52.4 µM; in [4], 90.7 µM; in [5], 33.8 µM. For the same compound, the TGI in test [6] was above 100 µM; in test [7], 83.2 µM; in [8] it was 38.2 µM.
Turning to `N#Cc1ccccc1NC(=O)C(=O)C(C(=O)c1ccccc1F)C1OC(=O)c2ccccc21` (configuration not stated), the TGI in test [1] was 57 µM; in [10] it was 64.4 µM; in test [2], above 100 µM; in test [3], 82.9 µM; in [4] it was above 100 µM; in test [5], above 100 µM. Further, the TGI in test [6], in [7] and in test [8] was above 100 µM in each case.
